pEC50: −log10 of the molar value.
Experiments:
[1] = tested on: Venezuelan equine encephalitis virus; test: Antiviral activity against Venezuelan equine encephalitis virus TC-83 strain infected in human U-87 MG cells assessed as reduction in viral infection measured after 18 hrs post infection by Nano luciferase assay relative to control; format: functional, organism-based; conditions: TC-83, U-87 MG
[2] = Cytotoxicity against Venezuelan equine encephalitis virus TC-83 strain infected human U-87 MG cells assessed as reduction in cell viability by alamar blue assay; format: cell-based, U-87MG ATCC
[3] = Cytotoxicity against DENV infected human Huh-7 cells assessed as reduction in cell viability by alamar blue assay; format: cell-based; conditions: DENV-infected Huh-7 cells
dengue virus type 2 = test: Antiviral activity against DENV2 New Guinea C strain infected in human Huh7 cells assessed as reduction in viral infection measured after 48 hrs post infection by renilla luciferase assay relative to control; format: functional, organism-based; conditions: Huh-7, 48 h

SMILES	pEC50 [1]	CC50 [2] [µM]	CC50 [3] [µM]	pEC50 (dengue virus type 2)
COc1cc2nccc(Nc3cccc(Br)c3)c2cc1OC	5.32	> 10	> 10	5.01
COc1ccc(OC)c(Nc2ccnc3ccc(C(F)(F)F)cc23)c1	5.77	> 10	> 10	6.60
COc1cc(Nc2ccnc3ccc(C(F)(F)F)cc23)cc(OC)c1	5.68	> 10	> 10	5.89
Fc1ccccc1Nc1ccnc2ccc(C(F)(F)F)cc12	< 5.00	> 10	> 10	< 5.00
COc1ccc(Nc2ccnc3ccc(C(F)(F)F)cc23)cc1OC	< 5.00	> 10	> 10	5.05
C#Cc1cc(Nc2ncnc3ccc(I)cc23)ccc1F	< 5.00	> 10	> 10	5.30
COc1ccc(Nc2ccnc3ccc(C(F)(F)F)cc23)c(OC)c1	5.47	> 10	> 10	< 5.00
C#Cc1cccc(Nc2ncnc3ccc(OC)cc23)c1	5.10	> 10	> 10	5.01
FC(F)(F)c1ccc2nccc(Nc3cccc(Cl)c3)c2c1	5.32	> 10	> 10	5.10
C#Cc1cccc(Nc2ncnc3cc(OC)c(OC)cc23)c1	5.00	> 10	> 10	5.19
CS(=O)(=O)c1cccc(Nc2ccnc3ccc(C(F)(F)F)cc23)c1	< 5.00	> 10	> 10	< 5.00
Fc1ccc(Nc2ccnc3ccc(C(F)(F)F)cc23)cc1F	< 5.00	> 10	> 10	< 5.00
C#Cc1cccc(Nc2c(C#N)cnc3cc(OC)c(OC)cc23)c1	< 5.00	> 10	> 10	5.52
FC(F)(F)c1ccc2nccc(Nc3ccc4c(c3)OCO4)c2c1	5.82	> 10	> 10	5.39
C#Cc1cccc(Nc2ncnc3cc(OC)ccc23)c1	< 5.00	> 10	> 10	< 5.00
C#Cc1cccc(Nc2ccnc3cc(OC)c(OC)cc23)c1	5.12	> 10	> 10	5.07
FC(F)(F)c1ccc2nccc(Nc3cccc(I)c3)c2c1	5.85	> 10	> 10	5.21
C#Cc1cccc(Nc2c(C#N)cnc3ccc(OC)cc23)c1	< 5.00	> 10	> 10	5.05
Fc1cc(Nc2ccnc3ccc(C(F)(F)F)cc23)ccc1Cl	5.77	> 10	> 10	5.39
COc1cc2nccc(Nc3cccc(C(C)=O)c3)c2cc1OC	5.89	> 10	> 10	5.32
FC(F)(F)c1ccc2nccc(Nc3ccc4c(c3)OCCO4)c2c1	< 5.00	> 10	> 10	< 5.00
Fc1cccc(Nc2ccnc3ccc(C(F)(F)F)cc23)c1	< 5.00	> 10	> 10	< 5.00
COc1ccccc1Nc1ccnc2ccc(C(F)(F)F)cc12	5.60	> 10	> 10	< 5.00
FC(F)(F)c1ccc2nccc(Nc3ccccc3Br)c2c1	< 5.00	> 10	> 10	< 5.00
FC(F)(F)c1ccc2nccc(Nc3ccc(Cl)cc3)c2c1	5.72	> 10	> 10	5.14
Fc1cc(Cl)cc(Nc2ccnc3ccc(C(F)(F)F)cc23)c1	5.24	> 10	> 10	5.03
COc1ccc(Nc2ccnc3ccc(C(F)(F)F)cc23)cc1	6.06	> 10	> 10	5.11

SMILES	pEC50 [1]	CC50 [2] [µM]	CC50 [3] [µM]	pEC50 (dengue virus type 2)
COc1cc(Nc2ccnc3ccc(C(F)(F)F)cc23)cc(OC)c1OC	5.80	> 10	> 10	
C#Cc1cc(Nc2ncnc3cc(C#N)ccc23)ccc1F	5.41	> 10	> 10	< 5.00
N#Cc1ccc(Nc2ccnc3ccc(C(F)(F)F)cc23)cc1	< 5.00	> 10	> 10	5.01
N#Cc1cccc(Nc2ccnc3ccc(C(F)(F)F)cc23)c1	5.66	> 10	> 10	< 5.00
CS(=O)(=O)c1ccc(Nc2ccnc3ccc(C(F)(F)F)cc23)cc1	< 5.00	> 10	> 10	5.21
COc1cccc(Nc2ccnc3ccc(C(F)(F)F)cc23)c1	5.26	> 10	> 10	6.09
COc1cccc(Nc2ccnc3cc(OC)c(OC)cc23)c1	5.32	> 10	> 10	5.23
FC(F)(F)c1ccc2nccc(Nc3ccc(Br)cc3)c2c1	5.20	> 10	> 10	5.39
C#Cc1cc(Nc2ncnc3cc(I)ccc23)ccc1F	< 5.00	> 10	> 10	< 5.00
FC(F)(F)c1ccc2nccc(Nc3cccc(Br)c3)c2c1	5.64	> 10	> 10	5.21
C#Cc1ccc(F)c(Nc2ncnc3cc(OC)c(OC)cc23)c1	5.11	> 10	> 10	5.05
N#Cc1ccccc1Nc1ccnc2ccc(C(F)(F)F)cc12	< 5.00	> 10	> 10	< 5.00
C#Cc1cccc(Nc2ncnc3cc(OCCOC)c(OCCOC)cc23)c1 [ERLOTINIB]	< 4.70			
C#Cc1cc(Nc2ncnc3cc(OC)c(OC)cc23)ccc1F	6.22	> 10	> 10	5.12
C#Cc1cccc(Nc2ccnc3ccc(OC)cc23)c1	< 5.00	> 10	> 10	5.37
C#Cc1cccc(Nc2c(C#N)cnc3cc(OC)ccc23)c1	< 5.00	> 10	> 10	5.11
Fc1cc(Nc2ccnc3ccc(C(F)(F)F)cc23)cc(F)c1F	< 5.00	> 10	> 10	< 5.00
FC(F)(F)c1ccc2nccc(Nc3ccc(Cl)c(Cl)c3)c2c1	6.30	> 10	> 10	5.48
CC(=O)c1cccc(Nc2ccnc3ccc(C(F)(F)F)cc23)c1	< 5.00	> 10	> 10	5.17
C#Cc1cccc(Nc2ccnc3cc(OC)ccc23)c1	< 5.00	> 10	> 10	5.77
Fc1ccc(Nc2ccnc3ccc(C(F)(F)F)cc23)cc1	< 5.00	> 10	> 10	< 5.00
C#Cc1cccc(Nc2ncnc3cc(OC)c(OC)cc23)c1F	5.00	> 10	> 10	< 5.00
FC(F)(F)c1cccc(Nc2ccnc3ccc(C(F)(F)F)cc23)c1	5.32	> 10	> 10	5.24
COc1cc(Nc2ncnc3ccc(C(F)(F)F)cc23)cc(OC)c1OC	< 5.00	> 10	> 10	< 5.00
FC(F)(F)c1ccc2nccc(Nc3ccccc3Cl)c2c1	5.19	> 10	> 10	< 5.00
C#Cc1cccc(Nc2ccnc3ccc(C(F)(F)F)cc23)c1	5.60	> 10	> 10	5.42

Reference: ChEMBL document CHEMBL5036348, “Identification and evaluation of 4-anilinoquin(az)olines as potent inhibitors of both dengue virus (DENV) and Venezuelan equine encephalitis virus (VEEV)” (Bioorg Med Chem Lett, 2021)
